Key:
Assay in all cases: NCI 60-cell line growth inhibition assay
Format in all cases: cell-based
[1] = test system: BT-549; conditions: Homo sapiens; BT-549 (Breast)
[2] = test system: MCF7; conditions: Homo sapiens; MCF7 (Breast)
[3] = test system: NCI/ADR-RES; conditions: Homo sapiens; NCI/ADR-RES (Breast)
[4] = test system: T-47D; conditions: Homo sapiens, T47D; T-47D (Breast)
[5] = test system: SF-295; conditions: Homo sapiens; SF-295 (CNS)
[6] = test system: SNB-19; conditions: Homo sapiens; SNB-19 (CNS)
[7] = test system: COLO 205; conditions: Homo sapiens; COLO 205 (Colon)
[8] = test system: HCT-116; conditions: Homo sapiens; HCT-116 (Colon)
[9] = test system: SW-620; conditions: Homo sapiens; SW-620 (Colon)
[10] = test system: HL-60(TB); conditions: Homo sapiens; HL-60(TB) (Leukemia)
[11] = test system: MOLT-4; conditions: Homo sapiens; MOLT-4 (Leukemia)
[12] = test system: RPMI-8226; conditions: Homo sapiens; RPMI-8226 (Leukemia)
[13] = test system: MALME-3M; conditions: Homo sapiens; MALME-3M (Melanoma)
[14] = test system: SK-MEL-2; conditions: Homo sapiens; SK-MEL-2 (Melanoma)
[15] = test system: SK-MEL-28; conditions: Homo sapiens; SK-MEL-28 (Melanoma)
[16] = test system: SK-MEL-5; conditions: Homo sapiens; SK-MEL-5 (Melanoma)
[17] = test system: UACC-62; conditions: Homo sapiens; UACC-62 (Melanoma)
[18] = test system: A549/ATCC; conditions: Homo sapiens; A549/ATCC (Non-Small Cell Lung)
[19] = test system: EKVX; conditions: Homo sapiens; EKVX (Non-Small Cell Lung)
[20] = test system: HOP-62; conditions: Homo sapiens; HOP-62 (Non-Small Cell Lung)
[21] = test system: NCI-H226; conditions: Homo sapiens; NCI-H226 (Non-Small Cell Lung)
[22] = test system: NCI-H322M; conditions: Homo sapiens; NCI-H322M (Non-Small Cell Lung)
[23] = test system: NCI-H460; conditions: Homo sapiens; NCI-H460 (Non-Small Cell Lung)
[24] = test system: NCI-H522; conditions: Homo sapiens; NCI-H522 (Non-Small Cell Lung)
[25] = test system: OVCAR-3; conditions: Homo sapiens; OVCAR-3 (Ovarian)
[26] = test system: OVCAR-4; conditions: Homo sapiens; OVCAR-4 (Ovarian)
[27] = test system: SK-OV-3; conditions: Homo sapiens; SK-OV-3 (Ovarian)
[28] = test system: DU-145; conditions: Homo sapiens; DU-145 (Prostate)
[29] = test system: PC-3; conditions: Homo sapiens; PC-3 (Prostate)
[30] = test system: 786-0; conditions: Homo sapiens; 786-0 (Renal)
[31] = test system: ACHN; conditions: Homo sapiens; ACHN (Renal)
[32] = test system: CAKI-1; conditions: Homo sapiens; CAKI-1 (Renal)
[33] = test system: RXF 393; conditions: Homo sapiens; RXF 393 (Renal)
[34] = test system: TK-10; conditions: Homo sapiens; TK-10 (Renal)
[35] = test system: UO-31; conditions: Homo sapiens; UO-31 (Renal)
[36] = test system: HS 578T; conditions: Homo sapiens; HS 578T (Breast)
[37] = test system: SF-268; conditions: Homo sapiens; SF-268 (CNS)
[38] = test system: CCRF-CEM; conditions: Homo sapiens; CCRF-CEM (Leukemia)
[39] = test system: SR; conditions: Homo sapiens; SR (Leukemia)
[40] = test system: LOX IMVI; conditions: Homo sapiens; LOX IMVI (Melanoma)
[41] = test system: HOP-92; conditions: Homo sapiens; HOP-92 (Non-Small Cell Lung)

Structure (SMILES)	GI50 [1]	GI50 [2]	GI50 [3]	GI50 [4]	GI50 [5]	GI50 [6]	GI50 [7]	GI50 [8]	GI50 [9]	GI50 [11]	GI50 [13]	GI50 [14]	GI50 [15]	GI50 [16]	GI50 [17]	GI50 [18]	GI50 [20]	GI50 [23]	GI50 [25]	GI50 [26]	further results
CC(C)n1cnc2c(NCc3ccc(-c4ccccn4)cc3)nc(N[C@H]3CC[C@H](N)CC3)nc21 [Compound 78]	40 nM	< 10 nM	14400 nM	30 nM	210 nM	< 10 nM	< 10 nM	30 nM	< 10 nM	< 10 nM	10 nM	20 nM	10 nM	100 nM	30 nM	< 10 nM	20 nM	50 nM	30 nM	20 nM	GI50 [10]: < 10 nM; GI50 [12]: < 10 nM; GI50 [19]: 50 nM; GI50 [21]: 20 nM; GI50 [22]: < 10 nM; GI50 [24]: < 10 nM; GI50 [27]: 60 nM; GI50 [28]: 60 nM; GI50 [29]: < 10 nM; GI50 [30]: 40 nM; GI50 [31]: 320 nM; GI50 [32]: 790 nM; GI50 [33]: < 10 nM; GI50 [34]: 70 nM; GI50 [35]: 170 nM
CC(=O)N[C@H]1CC[C@H](Nc2nc(NCc3ccc(-c4ccccc4)nc3)c3ncn(C(C)C)c3n2)CC1 [Compound 87]	20 nM	40 nM	280 nM	48 nM	47 nM	38 nM	< 10 nM	37 nM	< 10 nM	20 nM	24 nM	56 nM	< 10 nM	28 nM	45 nM	< 10 nM	10 nM	220 nM	50 nM	48 nM	GI50 [36]: < 10 nM; GI50 [37]: < 10 nM; GI50 [38]: < 10 nM; GI50 [10]: < 10 nM; GI50 [12]: < 10 nM; GI50 [39]: 32 nM; GI50 [40]: 27 nM; GI50 [41]: 88 nM; GI50 [24]: < 10 nM; GI50 [27]: 350 nM; GI50 [28]: 220 nM; GI50 [29]: 18 nM; GI50 [30]: 47 nM; GI50 [31]: 190 nM; GI50 [32]: 64 nM; GI50 [33]: 11 nM; GI50 [34]: 29 nM; GI50 [35]: 16 nM
CC[C@H](CO)Nc1nc(NCc2ccc(-c3cccc([N+](=O)[O-])c3)cc2)c2ncn(C(C)C)c2n1 [Compound 48]	10 nM	250 nM	120 nM	150 nM	240 nM	20 nM	30 nM	190 nM	< 10 nM	50 nM	130 nM	480 nM	< 10 nM	170 nM	100 nM	< 10 nM	30 nM	250 nM	170 nM	200 nM	GI50 [36]: 30 nM; GI50 [37]: < 10 nM; GI50 [38]: 30 nM; GI50 [12]: < 10 nM; GI50 [39]: 160 nM; GI50 [40]: 190 nM; GI50 [41]: 460 nM; GI50 [22]: 30 nM; GI50 [24]: < 10 nM; GI50 [27]: 1380 nM; GI50 [28]: 550 nM; GI50 [29]: 230 nM; GI50 [30]: 250 nM; GI50 [31]: 250 nM; GI50 [33]: < 10 nM; GI50 [34]: 370 nM; GI50 [35]: < 10 nM
CC[C@H](CO)Nc1nc(NCc2ccc(-c3ccc(OC)cc3)cc2)c2ncn(C(C)C)c2n1 [Compound 43]	4000 nM	2700 nM	5200 nM	2200 nM	4000 nM	5000 nM	1600 nM	2100 nM	1600 nM	2000 nM	3000 nM	61700 nM	2300 nM	2100 nM	3300 nM	4100 nM	3300 nM	3200 nM	9300 nM	8900 nM	GI50 [37]: 3000 nM; GI50 [38]: 2800 nM; GI50 [10]: 2100 nM; GI50 [39]: 2200 nM; GI50 [40]: 3400 nM; GI50 [19]: 2800 nM; GI50 [41]: 2600 nM; GI50 [22]: 3500 nM; GI50 [27]: 72400 nM; GI50 [28]: 2600 nM; GI50 [29]: 38900 nM; GI50 [30]: 3100 nM; GI50 [31]: 3100 nM; GI50 [32]: 3000 nM; GI50 [33]: 1900 nM; GI50 [34]: 3200 nM; GI50 [35]: 2800 nM

— patent US20030087906A1, “NITROGEN SUBSTITUTED BIARYL PURINE DERIVATIVES AS POTENT ANTIPROLIFERATIVE AGENTS” (priority 2001, published 2003)
